Laboratory results from patent publication US5189157A, “Antibacterial cephalosporin compounds” (Hoffmann La Roche Inc., priority 1988, dated 1993).
Counter-ions that a name gives are not always drawn.

Columns and labels:
Type in all cases: cell-based
P. aeruginosa ATCC 27853 = assay: In Vitro MIC, Broth Dilution Method; details: Pseudomonas aeruginosa, ATCC27853
P. aeruginosa Stone 130 [1] = assay: In Vitro MIC, Broth Dilution Method; details: Pseudomonas aeruginosa, STONE130
P. aeruginosa 5700 = assay: In Vitro MIC, Broth Dilution Method; details: Pseudomonas aeruginosa
Excerpt: (§1) The in vitro activity of the compounds of the present invention as measured by the Minimum Inhibitory Concentration in micrograms/ml utilizing the Agar Well Diffusion Method, Agar Dilution Method or Broth Dilution Method against a variety of Gram-positive and Gram-negative organisms, is as follows:
(§2) In Vitro MIC (μg/ml) Broth Dilution Method

P. aeruginosa 765 = assay: In Vitro MIC, Broth Dilution Method; details: Pseudomonas aeruginosa
Excerpt: as §1, §2

P. aeruginosa 503-56 = assay: In Vitro MIC, Broth Dilution Method; details: Pseudomonas aeruginosa, 50356
Excerpt: as §1, §2

P. aeruginosa 1973E = assay: In Vitro MIC, Broth Dilution Method; details: Pseudomonas aeruginosa
Excerpt: as §1, §2

P. aeruginosa 8710 = assay: In Vitro MIC, Broth Dilution Method; details: Pseudomonas aeruginosa
Excerpt: as §1, §2

P. aeruginosa K77/WT = assay: In Vitro MIC, Broth Dilution Method; details: Pseudomonas aeruginosa
Excerpt: as §1, §2

P. aeruginosa 6148B = assay: In Vitro MIC, Broth Dilution Method; details: Pseudomonas aeruginosa
P. aeruginosa 8780 = assay: In Vitro MIC, Broth Dilution Method; details: Pseudomonas aeruginosa, 8780, read-out: In Vitro MIC
P. aeruginosa B = assay: In Vitro MIC, Broth Dilution Method; details: Pseudomonas aeruginosa
E. cloaca P99 = assay: In Vitro MIC, Agar Dilution Method
Excerpt: as §1
(§3) In Vitro MIC (μg/ml) Agar Dilution Method

P. aeruginosa 130 = assay: In Vitro MIC, Agar Dilution Method; details: Pseudomonas aeruginosa
Excerpt: as §1, §3

E. cloacae 9570A = assay: In Vitro MIC, Agar Dilution Method; details: Enterobacter cloacae
Excerpt: as §1, §3

K. pneumoniae A = assay: In Vitro MIC, Agar Dilution Method; details: Klebsiella pneumoniae
Excerpt: as §1, §3

S. aureus Smith = assay: In Vitro MIC, Agar Dilution Method; details: Staphylococcus aureus
Excerpt: as §1, §3

P. aureus Giorgid = assay: In Vitro MIC, Agar Dilution Method
Excerpt: as §1, §3

S. aureus ATCC 25923 = assay: In Vitro MIC, Agar Dilution Method; details: Staphylococcus aureus, ATCC25923
Excerpt: as §1, §3

S. aureus 1059B = assay: In Vitro MIC, Agar Dilution Method; details: Staphylococcus aureus
Excerpt: as §1, §3

P. mirabilis 190 = assay: In Vitro MIC, Agar Dilution Method; details: Proteus mirabilis
Excerpt: as §1, §3

S. marscescens SM = assay: In Vitro MIC, Agar Dilution Method
Excerpt: as §1, §3

E. coli 48 = assay: In Vitro MIC, Agar Dilution Method; details: Escherichia coli
Excerpt: as §1, §3

P. aeruginosa Stone 130 [2] = assay: In Vitro MIC, Agar Dilution Method; details: Pseudomonas aeruginosa, STONE130
Excerpt: as §1, §3

P. aeruginosa 185/H = assay: In Vitro MIC, Agar Dilution Method; details: Pseudomonas aeruginosa
Excerpt: as §1, §3

P. aeruginosa K77/61 = assay: In Vitro MIC, Broth Dilution Method; details: Pseudomonas aeruginosa, K77/61, read-out: In Vitro MIC
Excerpt: as §1, §2

`CO/N=C(\C(=O)N[C@@H]1C(=O)N2C(C(=O)O)=C(COC(=O)c3ccc(O)c(O)c3)CS[C@H]12)c1csc(N)n1` [Compound A, [6R-[6 alpha,7 beta(Z)]]-7-[[(2-amino-4-thiazolyl)(methoxyimino)acetyl]amino]-3-[[[(3,4-dihydroxyphenyl)carbonyl]oxy]methyl]-8-oxo-5-thia-1-azabicyclo[4.2.0]oct-2-ene-2-carboxylic acid monosodium salt] showed an MIC (P. aeruginosa ATCC 27853) of 8 µg/mL, an MIC (P. aeruginosa Stone 130 [1]) of 2 µg/mL and an MIC (P. aeruginosa 5700) of 8 µg/mL. For the same compound, the MIC (P. aeruginosa 765) was 4 µg/mL, the MIC (P. aeruginosa 503-56) was 4 µg/mL and the MIC (P. aeruginosa 1973E) was 4 µg/mL. The MIC (P. aeruginosa 8710) was 2 µg/mL, the MIC (P. aeruginosa K77/WT) was 1 µg/mL and the MIC (P. aeruginosa 6148B) was 2 µg/mL. The MIC (P. aeruginosa 8780) was 0.5 µg/mL and the MIC (P. aeruginosa B) was 2 µg/mL.

For `CC(=O)Oc1ccc(C(=O)OCC2=C(C(=O)O)N3C(=O)[C@@H](NC(=O)/C(=N\OCC(N)=O)c4csc(N)n4)[C@H]3SC2)cc1OC(C)=O` [Compound B, [6R-[6 alpha,7 beta(Z)]]-3-[[[3,4-bis(acetyloxy)benzoyl]oxy]methyl]-7-[[[2-amino-4-thiazolyl][(2-amino-2-oxoethoxy)imino]acetyl]amino]-8-oxo-5-thia-1-azabicyclo[4.2.0]oct-2-ene-2-carboxylic acid monosodium salt], the MIC (E. cloaca P99) was 32 µg/mL, the MIC (P. aeruginosa 130) was 4 µg/mL and the MIC (E. cloacae 9570A) was 1 µg/mL. The MIC (K. pneumoniae A) was 0.125 µg/mL, the MIC (S. aureus Smith) was 4 µg/mL and the MIC (P. aureus Giorgid) was 8 µg/mL. For the same compound, the MIC (S. aureus ATCC 25923) was 2 µg/mL, the MIC (S. aureus 1059B) was 4 µg/mL and the MIC (P. mirabilis 190) was 0.063 µg/mL. It also gave an MIC (S. marscescens SM) of 1 µg/mL, an MIC (E. coli 48) of 0.031 µg/mL and an MIC (P. aeruginosa Stone 130 [2]) of 4 µg/mL. For the same compound, the MIC (P. aeruginosa 185/H) was 2 µg/mL.

`CC(C)(O/N=C(\C(=O)N[C@@H]1C(=O)N2C(C(=O)O)=C(COC(=O)c3ccc(O)c(O)c3)CS[C@H]12)c1csc(N)n1)C(=O)O` [Compound C, [6R-[6 alpha,7 beta(Z)]]-7-[[(2-amino-4-thiazolyl)(1-carboxy-1-methylethoxy)-imino]acetyl]amino]-3-[[(3,4-dihydroxybenzoyl)oxy]methyl]-8-oxo-5-thia-1-azabicyclo[4.2.0]oct-2-ene-2-carboxylic acid disodium salt] was tested, and the MIC (P. aeruginosa K77/61) was > 0.008 µg/mL, the MIC (P. aeruginosa 5700) was 2 µg/mL and the MIC (P. aeruginosa 765) was 8 µg/mL. The MIC (P. aeruginosa 1973E) was 2 µg/mL, the MIC (P. aeruginosa 8710) was 0.063 µg/mL and the MIC (P. aeruginosa 8780) was > 0.008 µg/mL. It also gave an MIC (P. aeruginosa B) of 0.125 µg/mL.

With `CCN1CCN(C(=O)N[C@@H](C(=O)N[C@@H]2C(=O)N3C(C(=O)O)=C(COC(=O)c4ccc(O)c(O)c4)CS[C@H]23)c2ccccc2)C(=O)C1=O` [Compound D, [6R-[6 alpha,7 beta(R*)]]-7-[[[[(4-ethyl-2,4-dioxo-1-piperazinyl)carbonyl]amino]phenylacetyl]amino]-3-[[(3,4-dihydroxy)benzoyl]oxy]-methyl]-8-oxo-5-thia-1-azabicyclo(4.2.0)oct-2-ene-2-carboxylic acid monosodium salt] the MIC (P. aeruginosa 8710) was 0.125 µg/mL.
